Results taken from the METLIN SMRT retention time set (Domingo-Almenara et al. 2019).

Test: gradient 5% acetonitrile 3 min, to 50% in 2 min, to 85% in 15 min, held 3 min, 100 µL/min
Conditions: column: Zorbax Extend-C18 2.1 x 50 mm; eluents: water / acetonitrile, 0.1% formic acid
In short: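 The mobile phases were water and acetonitrile, each with 0.1% formic acid, pumped at 100 μL/min through a Zorbax Extend-C18 column (2.1 × 50 mm, 1.8 μm). Pure standards were injected as mixtures of ~100 molecules and detected by a quadrupole time-of-flight mass spectrometer in positive and negative ionization mode. Retention time came from computationally picked adduct peaks, each inspected by hand.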

RP-LC retention time [s]	SMILES
829	O=C(C1CCN(S(=O)(=O)c2cc(-c3noc(C4CC4)n3)cs2)CC1)N1CCCC1
709	CN1C(=O)CCc2cc(NC(=O)Cc3ccsc3)ccc21
756	COc1ccc(NC(=O)C2CCN(c3cnc4nc(C)c(C)nc4c3)CC2)cc1Cl
1110	CC(=O)Oc1ccc(OC(C)=O)c2c1CC(C)=C(C)C2
995	Cn1nccc1C(=O)N1CCc2c([nH]c3ccccc23)C1c1ccc(F)cc1 (configuration not stated)
704	COc1ccc(CN2C(=O)COC[C@H]2C(=O)NCc2ccco2)c(OC)c1
584	COc1ccc(C2(C(=O)N3CCn4c(C)nnc4C3)CC2)cc1
841	COc1ccc(-c2cn3c(CC(=O)N(Cc4ccco4)C4CCCC4)csc3n2)cc1OC
708	O=C(c1ccc(N2CCCC2=O)cc1)N1CCCn2nc(-c3ccc(F)cc3)cc2C1
1030	O=C(Cn1nc(N2CCSCC2)c2ccccc2c1=O)Nc1cccc(Br)c1
963	O=C(CSc1cc(N2CCN(c3ccccc3F)CC2)ncn1)NC1CCCC1
1030	COc1ccc(-c2noc(CC3CCN(C(=O)C4(c5ccc(OC)cc5)CC4)CC3)n2)cc1
655	CC1CN2C=NC(N3CCN(C(=O)Nc4ccc5c(c4)CCC5)CC3)=CC2=N1 (configuration not stated)
781	Cc1ccc2c(c1)NC(=O)C(CC(=O)N1CCN(c3cccc(C)c3C)CC1)CO2 (configuration not stated)
752	O=C(Cc1cccs1)N1CCC(c2nnc(C(F)(F)F)o2)CC1
937	O=C(Cn1c(=O)cc(-c2nc(C3CC3)no2)c2ccccc21)Nc1ccccc1
665	COCCOC1CCN(C(=O)c2cccs2)CC1
961	Cc1cc(C)n(-c2nc(CC(=O)Nc3ccccc3F)cs2)n1
1020	O=C(c1cccc(Cl)c1)N1N=C(c2ccco2)CC1c1ccco1 (configuration not stated)
822	O=C(CCn1nnc2cc(-c3noc(-c4ccc(Br)o4)n3)ccc21)N1CCOCC1

The next lines start with the molecule.

SMILES	RP-LC retention time [s]
COC(=O)c1cnc(N2CCN(c3ccccn3)CC2)c2ccccc12	640
O=C1NC2(CCN(C(=O)c3cccc(Cl)c3)CC2)N=C1c1cccc(F)c1	888
COc1ccc2c(c1)c(CN1CCC(C(=O)NCCc3ccco3)CC1)cn2C	671
CCc1nc2cc(N3CCCC(C(=O)NC(C)C)C3)cnc2nc1CC (configuration not stated)	747
COc1cc(OC)c(NC(=O)c2cc3c(=O)oc4ccccc4c3n2C)cc1Cl	1030
Cc1ccc(C2Cn3nnc(-c4nc(-c5ccccc5)no4)c3CO2)c(C)c1 (configuration not stated)	1240
COCc1nc2cccnc2n1C1CCN(C(=O)Nc2ccccc2)CC1	680
Cc1ccc(F)cc1NS(=O)(=O)c1cc(-c2[nH]ncc2C(=O)N(C)C)oc1C	706
Cc1cccc(-c2nc(C3CCN(S(=O)(=O)c4cccc(F)c4)CC3)no2)c1	1170
COCc1cc(=O)n(CC(=O)Nc2cccc(OC)c2)c(N2CCOCC2)n1	779
COc1ccc(Br)c2c1-c1nc(NC(=O)c3ccccc3)sc1C2	1130
COC(=O)c1ccc2c(=O)n(-c3cccc(C)c3)c(N3CCCC3)nc2c1	953
CCCn1cc(CCNS(=O)(=O)c2ccc(F)cc2F)c2cccnc21	848
COC(=O)c1ccc(-c2nc3cnccn3c2Nc2cccc(Cl)c2C)cc1	988
Cc1csc(-c2cc(S(=O)(=O)NC(C)(C)C)cn2CC(=O)N2CCCCC2)n1	926
Cc1c(C(=O)NC2CCCCC2)sc2ncn(CC(=O)N3CC(C)CC(C)C3)c(=O)c12 (configuration not stated)	965
CCCc1cc(C2CCCN2C(=O)Nc2ccccc2C)no1 (configuration not stated)	902
Cc1cccc(NC(=O)N2CCCC(C)(C(=O)NCc3ccc(F)cc3)C2)c1 (configuration not stated)	924
Cc1ccc(C(=O)N2CCC[C@H]2c2nc(-c3ccccc3)n[nH]2)s1	740
Cc1ccc(NC(=O)CCC(=O)O)c(C)c1	627
CN1CCN(CCCNC(=O)Cn2c3ccccc3c3cnn(C)c(=O)c32)CC1	560
CC(C)Cn1cc(CCNC(=O)c2cccc(Br)c2)c2cccnc21	922
COc1ccc2c(c1)C1(CCN(S(=O)(=O)c3ccc4c(c3)oc(=O)n4C)C1)C(=O)N2C (configuration not stated)	818
O=C(Cc1csc(NC(=O)c2ccc(=O)[nH]c2)n1)NCc1ccccc1Cl	616

SMILES	RP-LC retention time [s]
C=CCNC(=O)c1cnn(-c2cc(-c3nc(CC)no3)ccn2)c1C	845
CCN1C(=O)c2cccnc2Sc2cc(CNC(=O)c3c(OC)cccc3OC)ccc21	784
Cn1c(=O)n(C2CCCN(C(=O)Cc3ccccc3)C2)c2ncncc21 (configuration not stated)	668
COc1ccccc1N1CCN(c2cc(SCC(=O)Nc3cccc(C)c3C)ncn2)CC1	1030
COc1cc(C(=O)Nc2nc(-c3ccc4c(c3)N(C)C(=O)CO4)cs2)cc(OC)c1OC	860
COc1ccc(-c2cc3n(n2)CCCN(C(=O)NCCc2ccccc2)C3)cc1	814
O=C1NCCCn2cc(S(=O)(=O)Nc3ccc(F)cc3F)cc21	641
CNC(=O)[C@@H]1CN(C(=O)C2CC=CCC2)C[C@H]1c1nc(C)no1 (some centres not stated)	642
Cc1cc2nc(C(=O)Nc3ccc(C#N)cc3)cc(C)n2n1	890
CCCn1cc(CCNC(=O)c2ccc(C)c(F)c2)c2cccnc21	815
CCCS(=O)(=O)N1CCc2c(c(-c3nncn3Cc3ccccc3)nn2C)C1	769
CC(C)Cc1noc(C2(F)CCN(S(=O)(=O)c3ccccc3)CC2)n1	691
CC(C)(C)c1ccc(C(=O)N2CCC3(CC2)N=C(c2ccccc2)NO3)cc1	991
Cn1c(=O)c2cc(C(=O)Nc3cccc(Cl)c3)cnc2n(-c2ccccc2)c1=O	980
O=C(CSC1CCc2ccccc2NC1=O)Nc1ccc(F)c(Cl)c1 (configuration not stated)	873
CC(=O)N(C1CCOCC1)C1CCN(C(=O)Nc2ccccc2)CC1	655
Cc1ccc(C)c(NC(=O)Cn2ccc3sccc3c2=O)c1	742
CS(=O)(=O)N1CC[C@H]2CN(Cc3cn[nH]c3-c3ccccc3)C[C@@]2(CF)C1	592
Cc1nc(CC(=O)Nc2cc(F)cc(F)c2)cs1	796
CN1C(=O)Cc2cc(C(=O)N3CCCCC3)ccc21	652
Cc1nc(-c2ccccc2)sc1C(=O)Nc1c(C)nc2ccc(Cl)cn2c1=O	737
CC(C)(C)c1csc(-c2csc(S(=O)(=O)Nc3cccc(Cl)c3F)c2)n1	1330
CCc1cc(-c2csc(S(=O)(=O)N3CC=C(c4ccccc4)CC3)c2)on1	1170
